Structures are written as SMILES. Read-outs that look alike come from different tables or passages of the source. Where only a bound is given, the exact number is not on record here.

Here are results for 26 compounds from patent US20200399222A1, “PICOLINAMIDES AS FUNGICIDES” (Dow AgroSciences LLC, priority 2018, published 2020).

In experiment [1] the test system is Puccinia triticina. Nature of the experiment: Wheat brown rust (PUCCRT) disease control on wheat seedlings. It is filed as in vivo. To be noted: High volume application, 100 ppm. On the procedure: Technical grades of materials were dissolved in acetone, which were then mixed with nine volumes of water containing 110 ppm Triton X-100. The fungicide solutions were applied onto wheat seedlings using an automated booth sprayer to run-off. All sprayed plants were allowed to air dry prior to further handling. All fungicides were evaluated using the aforementioned method for their activity vs. all target diseases, unless stated otherwise. Wheat leaf blotch and brown rust activity were also evaluated using track spray applications, in which case the fungicides were formulated as EC formulations, containing 0.1% Trycol 5941 in the spray solutions. Example B: Evaluation of Fungicidal Activity: Wheat Brown Rust (Puccinia triticina; Synonym: Puccinia recondita f. sp. tritici; Bayer Code PUCCRT) Wheat plants (variety Yuma) were grown from seed in a greenhouse in 50% mineral soil/50% soil-less Metro mix until the first leaf was fully emerged, with 7-10 seedlings per pot. These plants were inoculated with an aqueous spore suspension of Puccinia triticina either prior to or after fungicide treatments. After inoculation the plants were kept in a dark dew room at 22° C. with 100% relative humidity overnight to permit spores to germinate and infect the leaf. The plants were then transferred to a greenhouse set at 24° C. for disease to develop. Fungicide formulation, application and disease assessment followed the procedures as described in the Example A.

The subject of experiment [2] is Zymoseptoria tritici. Nature of the experiment: Leaf blotch of wheat (SEPTTR) disease control on wheat seedlings. It is filed as in vivo. To be noted: High volume application, 100 ppm. Here is the method:
Example A: Evaluation of Fungicidal Activity: Leaf Blotch of Wheat (Zymoseptoria tritici; Bayer Code […]) Technical grades of materials were dissolved in acetone, which were then mixed with nine volumes of water containing 110 ppm Triton X-100. The fungicide solutions were applied onto wheat seedlings using an automated booth sprayer to run-off. All sprayed plants were allowed to air dry prior to further handling. All fungicides were evaluated using the aforementioned method for their activity vs. all target diseases, unless stated otherwise. Wheat leaf blotch and brown rust activity were also evaluated using track spray applications, in which case the fungicides were formulated as EC formulations, containing 0.1% Trycol 5941 in the spray solutions. Wheat plants (variety Yuma) were grown from seed in a greenhouse in 50% mineral soil/50% soil-less Metro mix until the first leaf was fully emerged, with 7-10 seedlings per pot. These plants were inoculated with an aqueous spore suspension of Zymoseptoria tritici either prior to or after fungicide treatments. After inoculation the plants were kept in 100% relative humidity (one day in a dark dew chamber followed by two to three days in a lighted dew chamber at 20° C.) to permit spores to germinate and infect the leaf. The plants were then transferred to a greenhouse set at 20° C. for disease to develop. When disease symptoms were fully expressed on the 1st leaves of untreated plants, infection levels were assessed on a scale of 0 to 100 percent disease severity. Percent disease control was calculated using the ratio of disease severity on treated plants relative to untreated plants.

Where [3] appears, read: 24 h, 1 Day Protectant, read-out: PUCCRT disease control rating, 1DP.
The mark [4] stands for this setting: 72 h, 3 Day Curative, read-out: PUCCRT disease control rating, 3DC.
Where [5] appears, read: 24 h, 1 Day Protectant, read-out: SEPTTR disease control rating, 1DP.
[6] abbreviates: 72 h, 3 Day Curative, read-out: SEPTTR disease control rating, 3DC.

Consider `COc1ccnc(C(=O)N[C@H](C)C(=O)O[C@H](C)[C@@H](C)c2ccccc2C)c1O` [Example 155], for which the pest or weed control at 100 ppm in experiment [1] (setting [3]), in experiment [1] (setting [4]), in experiment [2] (setting [5]) and in experiment [2] (setting [6]) was less than 80% each time.

Turning to `COc1ccc([C@H](C)[C@H](C)OC(=O)CNC(=O)c2nccc(OC)c2O)c(C)c1` [Example 122], the pest or weed control at 100 ppm is greater than 80% in experiment [1] (setting [3]), greater than 80% in experiment [1] (setting [4]), less than 80% in experiment [2] (setting [5]) and less than 80% in experiment [2] (setting [6]).

Turning to `COc1ccnc(C(=O)N[C@@H](C)C(=O)O[C@H](C)[C@@H](C)c2ccccc2C)c1O` [Example 135], the pest or weed control at 100 ppm in experiment [1] (setting [3]), in experiment [1] (setting [4]), in experiment [2] (setting [5]) and in experiment [2] (setting [6]) was less than 80% each time.

Take `COc1ccc([C@H](C)[C@H](C)OC(=O)[C@@H](NC(=O)c2nccc(OC)c2O)C(C)C)c(C)c1` [Example 142]: the pest or weed control at 100 ppm was greater than 80% in experiment [1] (setting [3]), greater than 80% in experiment [1] (setting [4]), greater than 80% in experiment [2] (setting [5]) and less than 80% in experiment [2] (setting [6]).

For the compound `COc1ccnc(C(=O)NCC(=O)O[C@@H](C)[C@H](C)c2ccc(F)cc2C)c1O` [Example 119], the pest or weed control at 100 ppm was greater than 80% in experiment [1] (setting [3]), less than 80% in experiment [1] (setting [4]), less than 0% in experiment [2] (setting [5]) and less than 80% in experiment [2] (setting [6]).

With `COc1ccc([C@@H](C)[C@@H](C)OC(=O)[C@H](C)NC(=O)c2nccc(OC)c2O)c(C)c1` [Example 137], the pest or weed control at 100 ppm in experiment [1] (setting [3]) was greater than 80%; in experiment [1] (setting [4]), less than 80%; in experiment [2] (setting [5]), less than 80%; in experiment [2] (setting [6]) it was less than 80%.

As to `COc1ccnc(C(=O)N[C@@H](C)C(=O)OC(C)C(C)c2c(C)cccc2C)c1O` (some centres unmarked) [Example 164], the pest or weed control at 100 ppm in experiment [1] (setting [3]) is greater than 80%; in experiment [1] (setting [4]), greater than 80%; in experiment [2] (setting [5]) it was less than 80%; in experiment [2] (setting [6]) it was greater than 80%.

As for `COc1ccnc(C(=O)N[C@@H](C)C(=O)O[C@H](C)[C@H](C)C2CCCC2)c1O` [Example 163], the pest or weed control at 100 ppm in experiment [1] (setting [3]), in experiment [1] (setting [4]), in experiment [2] (setting [5]) and in experiment [2] (setting [6]) was less than 80% throughout.

As to `COc1ccnc(C(=O)N[C@@H](C)C(=O)O[C@H](C)[C@H](C)c2ccc(C)cc2C)c1O` [Example 117], the pest or weed control at 100 ppm in experiment [1] (setting [3]), in experiment [1] (setting [4]), in experiment [2] (setting [5]) and in experiment [2] (setting [6]) was less than 80% each time.

As to `COc1ccc([C@H](C)[C@H](C)OC(=O)[C@@H](C)NC(=O)c2nccc(OC)c2O)c(C)c1` [Example 152], the pest or weed control at 100 ppm in experiment [1] (setting [3]) was greater than 80%; in experiment [1] (setting [4]), less than 80%; in experiment [2] (setting [5]), less than 80%; in experiment [2] (setting [6]) it was less than 80%.

As to `COc1ccnc(C(=O)N[C@H](C(=O)O[C@@H](C)[C@@H](C)c2ccc(F)cc2C)C(C)C)c1O` [Example 138], the pest or weed control at 100 ppm in experiment [1] (setting [3]) was greater than 80%; in experiment [1] (setting [4]), greater than 80%; in experiment [2] (setting [5]) it was greater than 80%; in experiment [2] (setting [6]), less than 80%.

For the compound `COc1ccc([C@@H](C)[C@@H](C)OC(=O)CNC(=O)c2nccc(OC)c2O)c(C)c1` [Example 127], the pest or weed control at 100 ppm was less than 80% in experiment [1] (setting [3]), less than 80% in experiment [1] (setting [4]), less than 0% in experiment [2] (setting [5]) and less than 80% in experiment [2] (setting [6]).

Turning to `COc1ccnc(C(=O)N[C@@H](C)C(=O)O[C@@H](C)[C@@H](C)c2c(C)cc(F)cc2C)c1O` [Example 167], the pest or weed control at 100 ppm in experiment [1] (setting [3]), in experiment [1] (setting [4]), in experiment [2] (setting [5]) and in experiment [2] (setting [6]) was greater than 80% in each case.

As to `COc1ccnc(C(=O)N[C@H](C(=O)O[C@@H](C)[C@H](C)c2ccc(F)cc2C)C(C)C)c1O` [Example 139], the pest or weed control at 100 ppm in experiment [1] (setting [3]) is less than 80%; in experiment [1] (setting [4]), less than 0%; in experiment [2] (setting [5]), less than 80%; in experiment [2] (setting [6]), less than 80%.

Turning to `COc1ccc([C@@H](C)[C@@H](C)OC(=O)[C@@H](C)NC(=O)c2nccc(OC)c2O)c(C)c1` [Example 157], the pest or weed control at 100 ppm in experiment [1] (setting [3]) was less than 80%; in experiment [1] (setting [4]), less than 0%; in experiment [2] (setting [5]), less than 80%; in experiment [2] (setting [6]), less than 80%.

With `COc1ccnc(C(=O)N[C@@H](C)C(=O)O[C@H](C)[C@H](C)c2ccccc2C(F)(F)F)c1O` [Example 161], the pest or weed control at 100 ppm is less than 0% in experiment [1] (setting [3]), less than 0% in experiment [1] (setting [4]), less than 80% in experiment [2] (setting [5]) and less than 80% in experiment [2] (setting [6]).

With `COc1ccnc(C(=O)N[C@H](C(=O)O[C@@H](C)[C@H](C)c2ccccc2C)C(C)C)c1O` [Example 140], the pest or weed control at 100 ppm in experiment [1] (setting [3]) was greater than 80%; in experiment [1] (setting [4]), less than 80%; in experiment [2] (setting [5]), less than 80%; in experiment [2] (setting [6]) it was less than 80%.

With `COc1ccnc(C(=O)N[C@@H](C)C(=O)O[C@@H](C)[C@@H](C)c2c(C)cccc2C)c1O` [Example 166], the pest or weed control at 100 ppm in experiment [1] (setting [3]), in experiment [1] (setting [4]), in experiment [2] (setting [5]) and in experiment [2] (setting [6]) was greater than 80% each time.

As to `COc1ccnc(C(=O)N[C@H](C(=O)O[C@@H](C)[C@@H](C)c2ccc(F)cc2)C(C)C)c1O` [Example 141], the pest or weed control at 100 ppm in experiment [1] (setting [3]) is greater than 80%; in experiment [1] (setting [4]) it was less than 80%; in experiment [2] (setting [5]), greater than 80%; in experiment [2] (setting [6]), less than 80%.

On to `COc1ccnc(C(=O)N[C@H](C(=O)O[C@H](C)[C@@H](C)c2ccc(F)cc2C)C(C)C)c1O` [Example 144], for which the pest or weed control at 100 ppm in experiment [1] (setting [3]) is less than 0%; in experiment [1] (setting [4]), less than 80%; in experiment [2] (setting [5]), less than 80%; in experiment [2] (setting [6]), less than 80%.

In the case of `COc1ccnc(C(=O)N[C@@H](C)C(=O)O[C@@H](C)[C@@H](C)C2CCCC2)c1O` [Example 160], the pest or weed control at 100 ppm was less than 80% in experiment [1] (setting [3]), greater than 80% in experiment [1] (setting [4]), less than 80% in experiment [2] (setting [5]) and less than 80% in experiment [2] (setting [6]).

Take `COc1ccnc(C(=O)NCC(=O)O[C@H](C)[C@@H](C)c2ccc(F)cc2C)c1O` [Example 124]: the pest or weed control at 100 ppm is less than 80% in experiment [1] (setting [3]), less than 0% in experiment [1] (setting [4]), less than 0% in experiment [2] (setting [5]) and less than 80% in experiment [2] (setting [6]).

As for `COc1ccccc1[C@H](C)[C@H](C)OC(=O)[C@H](C)NC(=O)c1nccc(OC)c1O` [Example 170], the pest or weed control at 100 ppm in experiment [1] (setting [3]) was greater than 80%; in experiment [1] (setting [4]), greater than 80%; in experiment [2] (setting [5]) it was less than 80%; in experiment [2] (setting [6]), less than 80%.

Regarding `COc1ccnc(C(=O)N[C@@H](C)C(=O)O[C@H](C)[C@H](C)c2c(C)cc(F)cc2C)c1O` [Example 169], the pest or weed control at 100 ppm in experiment [1] (setting [3]), in experiment [1] (setting [4]), in experiment [2] (setting [5]) and in experiment [2] (setting [6]) was greater than 80% in each case.

For `COc1ccnc(C(=O)N[C@H](C)C(=O)O[C@@H](C)[C@H](C)c2ccccc2C)c1O` [Example 150], the pest or weed control at 100 ppm in experiment [1] (setting [3]) was less than 0%; in experiment [1] (setting [4]), less than 80%; in experiment [2] (setting [5]), less than 80%; in experiment [2] (setting [6]), less than 80%.

As to `COc1ccnc(C(=O)NCC(=O)O[C@@H](C)[C@@H](C)c2ccc(F)cc2)c1O` [Example 121], the pest or weed control at 100 ppm in experiment [1] (setting [3]) was greater than 80%; in experiment [1] (setting [4]), greater than 80%; in experiment [2] (setting [5]), less than 0%; in experiment [2] (setting [6]), less than 80%.
